Patent US20220306986A1, “NON-INVASIVE METHODS FOR SELECTIVELY ENRICHING PLURIPOTENT CELLS” (MEMORIAL SLOAN-KETTERING CANCER CENTER, priority 2019, published 2022)

Experiments:
Format in all cases: cell-based, mouse
[1] = system: ESCs; experiment: Glutamine deprivation: growth curves, viability and colony formation; conditions: DM-αKG 4 mM
Experimental: For glutamine deprivation experiments in mouse ESCs, cells were initially plated in standard S/L medium as described above. The following day, cells were washed with PBS and then cultured in experimental medium containing a 1:1 mix of glutamine-free DMEM (Gibco 11960-051) and glutamine-free Neurobasal medium (Gibco 21103-049) including 10% dialyzed FBS, 2-mercaptoethanol, and LIF as described above and containing (“+Q”) or lacking (“−Q”) L-glutamine (2 mM) as indicated. When indicated, dimethyl-α-ketoglutarate (Sigma 349631) dissolved in DMSO was added to a final concentration of 4 mM. […]
ESCs were seeded at a density of 30,000-40,000 cells per well of a 12-well plate. The following day, three wells of each line were counted to determine the starting cell number. […] Cells were counted on the indicated days thereafter using a Beckman Multisizer 4e with a cell volume gate of 400-10,000 fL. […]
Evaluation of cell viability and Nanog-GFP expression. […] Cells were evaluated for GFP and DAPI on either a LSRFortessa or LSR-II machine and FACSDiva software ([…] Dickinson). […] Nanog-GFP expression was measured by GFP mean fluorescence intensity and quantified using FlowJo v9.0. […]

[2] = system: Nanog-GFP ESCs; experiment: Nanog-GFP expression by flow cytometry after pulse treatment; conditions: 24 h pulse in glutamine-containing S/L medium, 24 h recovery; FIG. 7E-7F
Experimental: For transient glutamine withdrawal (“pulse”) experiments, cells were initially plated in standard S/L medium as described above. The following day, cells were washed with PBS and then changed to experimental medium containing a 1:1 mix of glutamine-free DMEM and glutamine-free Neurobasal medium including 10% dialyzed FBS, 2-mercaptoethanol, LIF, and containing (“Ctrl”) or lacking (“Pulse”) L-glutamine as indicated. 24 hours later, cells were washed with PBS and then returned to glutamine-replete medium (“Recover”). 24 hours later, cells were subjected to either image analysis, flow cytometry, or plated for colony formation assays as indicated. For glutamine pulse experiments in human ESCs, cells were initially plated at a density of 300,000 cells/well in a tissue-culture treated polystyrene 12-well plate coated with vitronectin (Thermo Fisher Scientific, A14700) in E8 medium (Thermo Fisher Scientific, A1517001) containing 10 uM ROCK inhibitor Y-27632 (Selleck Chemicals S1049). […] Cells were evaluated for GFP and DAPI on either a LSRFortessa or LSR-II machine and FACSDiva software ([…] Dickinson). […] Nanog-GFP expression was measured by GFP mean fluorescence intensity and quantified using FlowJo v9.0. […]

[3] = system: ESCs; experiment: Colony formation assay (alkaline phosphatase staining) after pulse treatment
Experimental: For transient glutamine withdrawal (“pulse”) experiments, cells were initially plated in standard S/L medium as described above. The following day, cells were washed with PBS and then changed to experimental medium containing a 1:1 mix of glutamine-free DMEM and glutamine-free Neurobasal medium including 10% dialyzed FBS, 2-mercaptoethanol, LIF, and containing (“Ctrl”) or lacking (“Pulse”) L-glutamine as indicated. 24 hours later, cells were washed with PBS and then returned to glutamine-replete medium (“Recover”). 24 hours later, cells were subjected to either image analysis, flow cytometry, or plated for colony formation assays as indicated. For glutamine pulse experiments in human ESCs, cells were initially plated at a density of 300,000 cells/well in a tissue-culture treated polystyrene 12-well plate coated with vitronectin (Thermo Fisher Scientific, A14700) in E8 medium (Thermo Fisher Scientific, A1517001) containing 10 uM ROCK inhibitor Y-27632 (Selleck Chemicals S1049). 24 hrs after plating, medium was changed to modified E8 medium containing: DMEM high glucose without glutamine (Thermo Fisher 11960044), 10.7 mg/L Transferrin (Sigma T0665), 64 mg/L L-Ascorbic Acid (Sigma A890), 14 ug/L Sodium Selenite (Sigma S5261), 543 mg/L Sodium Bicarbonate (Research Products International 144558), 19.4 mg/L insulin (Sigma 19278), 100 ug/L bFGF (EMD Millipore GF003AF), 2 ug/L TGFβ1 (Peprotech 10021), and 2 mM L-glutamine. After 24 hrs of culture in modified E8 medium, medium was changed to modified E8 medium containing 2 mM or 0 mM L-glutamine for 24 hrs. All cells were then changed to modified E8 medium containing 2 mM L-glutamine and cultured for 24 hrs before harvest for analysis. […] For ESC colony formation assays, colonies were scored manually in a blinded fashion. For reprogramming experiments, alkaline-phosphatase colonies were scored automatically using ImageJ (NIH). Briefly, images of each well were binarized using the Default function and particles greater than 8 pixels with a circularity of 0.7-1.0 were counted.

- benefit of the glutamine withdrawal pulse on self-renewal (colony formation) ([3]; 4 mM DM-αKG added during 24 h glutamine withdrawal, FIG. 3H): abrogated the benefit of the pulse
- self-renewal capacity of the ESC population after pulsed treatment (colony formation) ([3]; 24 h pulse, 24 h recovery before plating, FIG. 3G, 7G): no durable effect
Compound: COC(=O)CCC(=O)C(=O)OC [cell-permeable αKG, dimethyl-α-ketoglutarate]
- survival and proliferation in the absence of glutamine (population doublings) ([1]; 48 h glutamine-free medium, FIG. 2G, 2H): capable of rescuing survival and proliferation in the absence of glutamine
- proliferation, viability and self-renewal of ESCs under glutamine withdrawal ([1]; S/L culture, FIG. 2A, 6A-6B): sufficient to compensate for glutamine withdrawal
- Nanog-GFP expression after pulsed treatment [2]: transiently increase Nanog-GFP expression
